Test results as given in PMC11874779 (Drug Design, Development and Therapy, 2025).

Tested on: Baf3-EGFR^19del/T790M/C797S
Assay: Xenograft tumor model
Format: in vivo, BALB/c nude mice
Conditions: 100 mg/kg ig daily, 9 days, from tumor weight

For C=CC(=O)Nc1cc(Nc2nccc(-c3cn(C)c4ccccc34)n2)c(OC)cc1N(C)CCN(C)C [Osimertinib], the “Tumor Growth Inhibition value (TGI)” value was 13.5%.
